*1 amine or outer side, *2 acyl side, *3 side chain or, on linkers, in order; H or OH if unused. Where a SMILES comes first, the peptide text is derived from it. Bridges are numbered along the chain shown (N, C = ends). [ ]: non-standard residue; d: D form. 2Nal = N[C@@H](Cc1ccc2ccccc2c1)C(=O)O; AEF = NCCOc1ccc(C[C@H](N)C(=O)O)cc1; X1 = O=C(Cc1ccc(CN[*:1])cc1)[*:2]; 3Pal = N[C@@H](Cc1cccnc1)C(=O)O; αMeL = CC(C)C[C@](C)(N)C(=O)O; Dab = NCC[C@H](N)C(=O)O; Sar = CNCC(=O)O

The first experiment addresses T1, human IL-23R (Homo sapiens, UniProt Q5VWK5).
T1 sequence (Q5VWK5 22-629): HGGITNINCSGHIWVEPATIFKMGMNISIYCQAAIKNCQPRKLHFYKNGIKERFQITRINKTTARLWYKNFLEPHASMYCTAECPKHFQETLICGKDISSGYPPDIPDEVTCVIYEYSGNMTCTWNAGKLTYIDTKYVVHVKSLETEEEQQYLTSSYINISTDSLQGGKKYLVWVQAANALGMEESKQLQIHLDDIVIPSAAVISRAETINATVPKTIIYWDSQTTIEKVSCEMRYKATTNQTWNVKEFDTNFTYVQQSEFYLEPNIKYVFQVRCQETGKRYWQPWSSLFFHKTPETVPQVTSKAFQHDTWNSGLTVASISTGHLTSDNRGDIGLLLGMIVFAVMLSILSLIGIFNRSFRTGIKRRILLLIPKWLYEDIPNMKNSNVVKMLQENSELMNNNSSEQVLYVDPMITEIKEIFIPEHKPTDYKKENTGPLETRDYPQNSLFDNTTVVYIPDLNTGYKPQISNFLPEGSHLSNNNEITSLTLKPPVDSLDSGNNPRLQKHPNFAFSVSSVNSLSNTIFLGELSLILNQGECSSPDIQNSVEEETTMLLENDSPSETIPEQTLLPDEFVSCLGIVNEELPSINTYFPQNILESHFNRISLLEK
The experiment can be described thus: biochemical.
Settings: not given
An outline of the steps: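 Membranes from HEK293 cells stably expressing Nluc-tagged human IL-23R were incubated 2 h at room temperature with test compound and a fluorophore-labelled tracer. After substrate addition, loss of BRET (TAMRA over luciferase emission) reported tracer displacement. A 4PL fit gave IC50 values.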
`CC(C)C[C@]1(C)NC(=O)[C@H](Cc2ccc3ccccc3c2)NC(=O)[C@H](Cc2ccc(OCCN)cc2)NC(=O)[C@@H]2CCNC(=O)CC[C@H](NC(=O)[C@H](CO)NC(=O)Cc3ccc(cc3)CNC(=O)CC[C@@H](C(=O)N[C@@H](CCN)C(=O)NCCCCc3cccnc3)NC1=O)C(=O)N[C@@H](Cc1c[nH]c3ccccc13)C(=O)N[C@@H](CCC(N)=O)C(=O)N2` [Compound 6, [4-Aminomethyl-phenylacetyl](1c)*SE(2c)WQ[Dab](2c)[Y(2-aminoethoxy)][2-Nal][2-Me-Leu]E(1c)[Dab]-[NH-(4-(pyridin-3-yl)butanyl)]]: the “% displacement (hIL-23R binding)” value was determined as 103%.
As for `CC(C)C[C@]1(C)NC(=O)[C@H](Cc2ccc3ccccc3c2)NC(=O)[C@H](Cc2ccc(OCCN)cc2)NC(=O)[C@@H]2CCNC(=O)CC[C@H](NC(=O)[C@H](CO)NC(=O)Cc3ccc(cc3)CNC(=O)CC[C@@H](C(=O)N[C@@H](CCN)C(=O)N[C@@H](Cc3c[nH]cn3)C(=O)N[C@@H](Cc3cccnc3)C(N)=O)NC1=O)C(=O)N[C@@H](Cc1c[nH]c3ccccc13)C(=O)N[C@@H](CCC(N)=O)C(=O)N2` [Compound 12, [4-Aminomethyl-phenylacetyl](1c)*SE(2c)WQ[Dab](2c)[Y(2-aminoethoxy)][2-Nal][2-Me-Leu]E(1c)[Dab]H[3-(3-Pyridyl)-Ala]-[NH2]] ([X1]SEWQ[Dab][AEF][2Nal][αMeL]E[Dab]H[3Pal]-NH2; lactam 3-6, N-10), the “% displacement (hIL-23R binding)” value was 104% and the IC50 was found to be 0.057 nM.
Consider `CC(C)C[C@]1(C)NC(=O)[C@H](Cc2ccc3ccccc3c2)NC(=O)[C@H](Cc2ccc(OCCN)cc2)NC(=O)[C@@H]2CCNC(=O)CC[C@H](NC(=O)[C@H](CO)NC(=O)Cc3ccc(cc3)CNC(=O)CC[C@@H](C(=O)N[C@@H](CCN)C(=O)N[C@H](Cc3cccnc3)C(N)=O)NC1=O)C(=O)N[C@@H](Cc1c[nH]c3ccccc13)C(=O)N[C@@H](CCC(N)=O)C(=O)N2` [Compound 5, [4-Aminomethyl-phenylacetyl](1c)*SE(2c)WQ[Dab](2c)[Y(2-aminoethoxy)][2-Nal][2-Me-Leu]E(1c)[Dab][{d}3-(3-Pyridyl)-Ala]-[NH2]], for which the “% displacement (hIL-23R binding)” value was found to be 99% and the IC50 stood at 0.093 nM.
Regarding `CC(C)C[C@]1(C)NC(=O)[C@H](Cc2ccc3ccccc3c2)NC(=O)[C@H](Cc2ccc(OCCN)cc2)NC(=O)[C@@H]2CCNC(=O)CC[C@H](NC(=O)[C@H](CO)NC(=O)Cc3ccc(cc3)CNC(=O)CC[C@@H](C(=O)N[C@@H](CCN)C(=O)N(C)[C@@H](Cc3cccnc3)C(N)=O)NC1=O)C(=O)N[C@@H](Cc1c[nH]c3ccccc13)C(=O)N[C@@H](CCC(N)=O)C(=O)N2` [Compound 4, [4-Aminomethyl-phenylacetyl](1c)*SE(2c)WQ[Dab](2c)[Y(2-aminoethoxy)][2-Nal][2-Me-Leu]E(1c)[Dab][N-Me-3-(3-Pyridyl)-Ala]-[NH2]], the “% displacement (hIL-23R binding)” value stood at 111%.
Compound `CC(C)C[C@]1(C)NC(=O)[C@H](Cc2ccc3ccccc3c2)NC(=O)[C@H](Cc2ccc(OCCN)cc2)NC(=O)[C@@H]2CCNC(=O)CC[C@H](NC(=O)[C@H](CO)NC(=O)Cc3ccc(cc3)CNC(=O)CC[C@@H](C(=O)N[C@@H](CCN)C(=O)NCCc3cccnc3)NC1=O)C(=O)N[C@@H](Cc1c[nH]c3ccccc13)C(=O)N[C@@H](CCC(N)=O)C(=O)N2` [Compound 7, [4-Aminomethyl-phenylacetyl](1c)*SE(2c)WQ[Dab](2c)[Y(2-aminoethoxy)][2-Nal][2-Me-Leu]E(1c)[Dab]-[NH-(2-(pyridin-3-yl)ethyl)]] showed a 50% inhibitory concentration (IC50) of 0.012 nM.
In the case of `CC(C)C[C@]1(C)NC(=O)[C@H](Cc2ccc3ccccc3c2)NC(=O)[C@H](Cc2ccc(OCCN)cc2)NC(=O)[C@@H]2CCNC(=O)CC[C@H](NC(=O)[C@H](CO)NC(=O)Cc3ccc(cc3)CNC(=O)CC[C@@H](C(=O)N[C@@H](CCN)C(=O)N[C@@H](Cc3cccnc3)C(=O)N(C)CC(N)=O)NC1=O)C(=O)N[C@@H](Cc1c[nH]c3ccccc13)C(=O)N[C@@H](CCC(N)=O)C(=O)N2` [Compound 9, [4-Aminomethyl-phenylacetyl](1c)*SE(2c)WQ[Dab](2c)[Y(2-aminoethoxy)][2-Nal][2-Me-Leu]E(1c)[Dab][3-(3-Pyridyl)-Ala][Sar]-[NH2]] ([X1]SEWQ[Dab][AEF][2Nal][αMeL]E[Dab][3Pal][Sar]-NH2; lactam 3-6, N-10), the “% displacement (hIL-23R binding)” value was determined as 100% and it took 0.0053 nM to reach half-maximal inhibition (IC50).
For `CC(C)C[C@]1(C)NC(=O)[C@H](Cc2ccc3ccccc3c2)NC(=O)[C@H](Cc2ccc(OCCN)cc2)NC(=O)[C@@H]2CCNC(=O)CC[C@H](NC(=O)[C@H](CO)NC(=O)Cc3ccc(cc3)CNC(=O)CC[C@@H](C(=O)N[C@@H](CCN)C(=O)N[C@@](C)(Cc3cccnc3)C(N)=O)NC1=O)C(=O)N[C@@H](Cc1c[nH]c3ccccc13)C(=O)N[C@@H](CCC(N)=O)C(=O)N2` [Compound 3, [4-Aminomethyl-phenylacetyl](1c)*SE(2c)WQ[Dab](2c)[Y(2-aminoethoxy)][2-Nal][2-Me-Leu]E(1c)[Dab][2-Me-3-(3-Pyridyl)-Ala]-[NH2]] the same measures were 99% and 0.034 nM.
With `CC(C)C[C@]1(C)NC(=O)[C@H](Cc2ccc3ccccc3c2)NC(=O)[C@H](Cc2ccc(OCCN)cc2)NC(=O)[C@@H]2CCNC(=O)CC[C@H](NC(=O)[C@H](CO)NC(=O)Cc3ccc(cc3)CNC(=O)CC[C@@H](C(=O)N[C@@H](CCN)C(=O)N[C@@H](Cc3cccnc3)C(=O)N[C@H](Cc3c[nH]cn3)C(N)=O)NC1=O)C(=O)N[C@@H](Cc1c[nH]c3ccccc13)C(=O)N[C@@H](CCC(N)=O)C(=O)N2` [Compound 10, [4-Aminomethyl-phenylacetyl](1c)*SE(2c)WQ[Dab](2c)[Y(2-aminoethoxy)][2-Nal][2-Me-Leu]E(1c)[Dab][3-(3-Pyridyl)-Ala][{d}H]-[NH2]] ([X1]SEWQ[Dab][AEF][2Nal][αMeL]E[Dab][3Pal][dH]-NH2; lactam 3-6, N-10), the “% displacement (hIL-23R binding)” value was determined as 91% and the half-maximal inhibitory concentration (IC50) worked out at 0.0058 nM.
Turning to `CNC(=O)[C@H](Cc1cccnc1)NC(=O)[C@H](CCN)NC(=O)[C@@H]1CCC(=O)NCc2ccc(cc2)CC(=O)N[C@@H](CO)C(=O)N[C@H]2CCC(=O)NCC[C@H](NC(=O)[C@H](CCC(N)=O)NC(=O)[C@H](Cc3c[nH]c4ccccc34)NC2=O)C(=O)N[C@@H](Cc2ccc(OCCN)cc2)C(=O)N[C@@H](Cc2ccc3ccccc3c2)C(=O)N[C@@](C)(CC(C)C)C(=O)N1` [Compound 8, [4-Aminomethyl-phenylacetyl](1c)*SE(2c)WQ[Dab](2c)[Y(2-aminoethoxy)][2-Nal][2-Me-Leu]E(1c)[Dab][3-(3-Pyridyl)-Ala]-[NHMe]], the “% displacement (hIL-23R binding)” value is 103% and half-maximal inhibition (IC50) was put at 0.0098 nM.
Take `CC(C)C[C@]1(C)NC(=O)[C@H](Cc2ccc3ccccc3c2)NC(=O)[C@H](Cc2ccc(OCCN)cc2)NC(=O)[C@@H]2CCNC(=O)CC[C@H](NC(=O)[C@H](CO)NC(=O)Cc3ccc(cc3)CNC(=O)CC[C@@H](C(=O)N[C@@H](CCN)C(=O)N[C@H](Cc3c[nH]cn3)C(N)=O)NC1=O)C(=O)N[C@@H](Cc1c[nH]c3ccccc13)C(=O)N[C@@H](CCC(N)=O)C(=O)N2` [Compound 13, [4-Aminomethyl-phenylacetyl](1c)*SE(2c)WQ[Dab](2c)[Y(2-aminoethoxy)][2-Nal][2-Me-Leu]E(1c)[Dab][{d}H]-[NH2]]: the “% displacement (hIL-23R binding)” value is reported as 100% and the midpoint of inhibition, the IC50, lay at 0.059 nM.

Still in this experiment, the particulars now being: read-out: % displacement (hIL-23R binding).
Take `CC(C)C[C@]1(C)NC(=O)[C@H](Cc2ccc3ccccc3c2)NC(=O)[C@H](Cc2ccc(OCCN)cc2)NC(=O)[C@@H]2CCNC(=O)CC[C@H](NC(=O)[C@H](CO)NC(=O)Cc3ccc(cc3)CNC(=O)CC[C@@H](C(=O)N[C@@H](CCN)C(=O)NCCc3cccnc3)NC1=O)C(=O)N[C@@H](Cc1c[nH]c3ccccc13)C(=O)N[C@@H](CCC(N)=O)C(=O)N2` [Compound 7, [4-Aminomethyl-phenylacetyl](1c)*SE(2c)WQ[Dab](2c)[Y(2-aminoethoxy)][2-Nal][2-Me-Leu]E(1c)[Dab]-[NH-(2-(pyridin-3-yl)ethyl)]]: the Emax turned out to be 102%.

The values above are taken from patent publication EP4471049A1 (Zealand Pharma A/S, priority 2023, dated 2024).
